The values that follow come from patent US20240270768A1, “A METHOD FOR OBTAINING L-GLUFOSINATE” (UPL LIMITED, priority 2021, published 2024).

For data set [1] the following is noted: versus other L-glufosinate quinine hydrates (dihydrate, hexahydrate, dodecahydrate).
Data set [2] is described as follows: Storage stability of L-glufosinate quinine tetrahydrate salt under standard conditions, analysed by HPLC. In kind it is physicochemical. Here is the method:
HPLC method: • A) Column—Zorbax SB-C8 (250×4.6 mm i.d., 5 micron) • B) Mobile Phase—0.1% OPA: Acetonitrile (v/v) 40:60 • C) Flow—1.0 ml/min. • D) UV-Wavelength—230 nm • E) Injection volume—5 μl • F) Column temperature 40 °C • G) Run time—10 min
L-glufosinate quinine tetrahydrate salt obtained in example 1 was stored under standard conditions (i.e. room temperature, normal pressure, air atmosphere) for 431 days.

Regarding `C=C[C@H]1CN2CC[C@H]1C[C@H]2[C@H](O)c1ccnc2ccc(OC)cc12.CP(=O)(O)CC[C@H](N)C(=O)O.O.O.O.O` [L-glufosinate quinine tetrahydrate salt], the “Storage stability, thermal stability and hygroscopicity compared to other hydrates” value in data set [1] was “improved storage stability, thermal stability and non-hygroscopicity as compared to other hydrates”. Moreover, in data set [2] (ambient conditions and air atmosphere), the “Duration of desirable stability on storage” value is recorded as “more than 430 days”. The “Moisture content after storage” value in data set [2] (stored 431 days at room temperature, normal pressure, air atmosphere, initial value 12.04% (Example 1)) was 12.39%. For the same molecule, in data set [2] (stored 431 days at room temperature, normal pressure, air atmosphere, initial value 12.32% (Example 1)), the “Loss on drying after storage” value came to 12.27%. Further, the “L-glufosinate acid content (by HPLC) after storage” value in data set [2] (stored 431 days at room temperature, normal pressure, air atmosphere, initial value 32.70% (Example 1)) was determined as 33.13%. The “Quinine content (by HPLC) after storage” value in data set [2] (stored 431 days at room temperature, normal pressure, air atmosphere, initial value 54.34% (Example 1)) is recorded as 53.14%.
